As usually defined, the IC50 is the point on the concentration scale where inhibition reaches its midpoint.

Molecules are shown by their SMILES. Calls of active or inactive are those of the source. No cut-off for these calls is given here.

What all share (assay type): functional, cell-based
The target of test [1] is T1, Taste receptor type 2 member 38 (Homo sapiens) (UniProt P59533).
T1 sequence (whole entry): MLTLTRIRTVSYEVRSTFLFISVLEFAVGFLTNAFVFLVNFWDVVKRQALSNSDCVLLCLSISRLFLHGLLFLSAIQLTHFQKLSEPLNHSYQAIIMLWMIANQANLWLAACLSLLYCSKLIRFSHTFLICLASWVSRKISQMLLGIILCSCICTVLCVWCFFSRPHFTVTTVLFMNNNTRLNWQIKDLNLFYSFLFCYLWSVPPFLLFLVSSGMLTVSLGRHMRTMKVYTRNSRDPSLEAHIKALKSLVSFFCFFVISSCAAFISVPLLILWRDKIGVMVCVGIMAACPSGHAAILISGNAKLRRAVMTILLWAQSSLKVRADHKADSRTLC
The test can be described thus: Agonist activity at recombinant human N-terminal rat ST3 receptor-fused TAS2R38 expressed in HEK293T cells co-expressing Galpha16gust44 assessed as effect on intracellular calcium level at 100 uM by FLIPR assay. In general terms: A change in cytosolic calcium serves as a functional read-out for many receptors and channels.

Test [2] addresses T2, Taste receptor type 2 member 39 (Homo sapiens) (UniProt P59534).
T2 sequence (whole entry): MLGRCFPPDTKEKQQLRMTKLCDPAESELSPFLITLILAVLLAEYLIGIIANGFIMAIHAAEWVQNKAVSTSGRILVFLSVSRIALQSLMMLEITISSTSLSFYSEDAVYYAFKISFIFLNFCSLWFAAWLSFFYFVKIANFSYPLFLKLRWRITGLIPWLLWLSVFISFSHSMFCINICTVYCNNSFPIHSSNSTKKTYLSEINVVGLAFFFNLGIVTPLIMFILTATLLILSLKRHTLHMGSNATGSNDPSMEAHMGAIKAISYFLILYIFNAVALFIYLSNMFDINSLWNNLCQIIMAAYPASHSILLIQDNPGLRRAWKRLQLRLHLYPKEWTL
Nature of the test: Agonist activity at recombinant human N-terminal rat ST3 receptor-fused TAS2R39 expressed in HEK293T cells co-expressing Galpha16gust44 assessed as effect on intracellular calcium level at 100 uM by FLIPR assay.

For test [3], the target named is T3, Taste receptor type 2 member 13 (Homo sapiens) (UniProt Q9NYV9).
T3 sequence (whole entry): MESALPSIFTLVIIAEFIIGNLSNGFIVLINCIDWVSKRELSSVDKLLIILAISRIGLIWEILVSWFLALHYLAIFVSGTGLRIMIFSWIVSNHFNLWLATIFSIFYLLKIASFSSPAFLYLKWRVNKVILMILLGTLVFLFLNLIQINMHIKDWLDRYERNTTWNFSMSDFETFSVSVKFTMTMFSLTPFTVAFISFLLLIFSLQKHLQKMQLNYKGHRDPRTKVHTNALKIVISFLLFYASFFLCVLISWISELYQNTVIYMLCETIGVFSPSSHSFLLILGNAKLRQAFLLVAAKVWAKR
The test can be described thus: Agonist activity at recombinant human N-terminal rat ST3 receptor-fused TAS2R13 expressed in HEK293T cells co-expressing Galpha16gust44 assessed as effect on intracellular calcium level at 100 uM by FLIPR assay.

Test [4] deals with Taste receptor type 2 member 40 (Homo sapiens) (UniProt P59535). Nature of the test: Agonist activity at recombinant human N-terminal rat ST3 receptor-fused TAS2R40 expressed in HEK293T cells co-expressing Galpha16gust44 assessed as effect on intracellular calcium level at 100 uM by FLIPR assay.
Test [5] concerns the target T4, Taste receptor type 2 member 8 (Homo sapiens) (UniProt Q9NYW2).
T4 sequence (whole entry): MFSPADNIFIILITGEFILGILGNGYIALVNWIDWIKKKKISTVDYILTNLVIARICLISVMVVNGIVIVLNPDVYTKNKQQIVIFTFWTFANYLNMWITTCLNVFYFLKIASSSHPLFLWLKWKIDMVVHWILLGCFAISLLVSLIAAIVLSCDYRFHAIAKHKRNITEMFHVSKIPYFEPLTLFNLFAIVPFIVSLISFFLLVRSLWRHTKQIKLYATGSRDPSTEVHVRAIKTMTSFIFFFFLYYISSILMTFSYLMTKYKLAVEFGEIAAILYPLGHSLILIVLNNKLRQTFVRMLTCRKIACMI
The test can be described thus: Agonist activity at recombinant human N-terminal rat ST3 receptor-fused TAS2R8 expressed in HEK293T cells co-expressing Galpha16gust44 assessed as effect on intracellular calcium level at 100 uM by FLIPR assay.

The target in test [6] is Taste receptor type 2 member 60 (Homo sapiens) (UniProt P59551). The test can be described thus: Agonist activity at recombinant human N-terminal rat ST3 receptor-fused TAS2R60 expressed in HEK293T cells co-expressing Galpha16gust44 assessed as effect on intracellular calcium level at 100 uM by FLIPR assay.
Test [7] addresses Taste receptor type 2 member 41 (Homo sapiens) (UniProt P59536). Nature of the test: Agonist activity at recombinant human N-terminal rat ST3 receptor-fused TAS2R41 expressed in HEK293T cells co-expressing Galpha16gust44 assessed as effect on intracellular calcium level at 100 uM by FLIPR assay.
Test [8] deals with T5, Taste receptor type 2 member 46 (Homo sapiens, UniProt P59540).
T5 sequence (P59540 whole entry): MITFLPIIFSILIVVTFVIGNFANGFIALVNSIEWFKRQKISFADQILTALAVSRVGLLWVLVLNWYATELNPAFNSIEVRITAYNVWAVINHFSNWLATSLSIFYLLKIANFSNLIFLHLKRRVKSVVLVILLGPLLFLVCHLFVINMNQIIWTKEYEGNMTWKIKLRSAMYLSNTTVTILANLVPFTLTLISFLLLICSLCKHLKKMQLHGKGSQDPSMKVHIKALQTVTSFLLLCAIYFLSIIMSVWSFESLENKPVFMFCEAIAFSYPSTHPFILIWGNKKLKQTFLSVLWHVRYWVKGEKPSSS
The test can be described thus: Antagonist activity at recombinant human N-terminal rat ST3 receptor-fused TAS2R46 expressed in HEK293T cells co-expressing Galpha16gust44 assessed as inhibition of 300 uM picrotoxinin-induced intracellular calcium level 100 uM by FLIPR assay.

The target of test [9] is T5, Taste receptor type 2 member 46. The test can be described thus: Antagonist activity at recombinant human N-terminal rat ST3 receptor-fused TAS2R46 expressed in HEK293T cells co-expressing Galpha16gust44 assessed as inhibition of 30 uM andrographolide-induced intracellular calcium level 100 uM by FLIPR assay.
The target is the same in test [10]. The test can be described thus: Antagonist activity at recombinant human N-terminal rat ST3 receptor-fused TAS2R46 expressed in HEK293T cells co-expressing Galpha16gust44 assessed as inhibition of 300 uM denatonium benzoate-induced intracellular calcium level 100 uM by FLIPR assay.

Taste receptor type 2 member 60 (Homo sapiens), sequence (P59551 whole entry, the tested form may be a part): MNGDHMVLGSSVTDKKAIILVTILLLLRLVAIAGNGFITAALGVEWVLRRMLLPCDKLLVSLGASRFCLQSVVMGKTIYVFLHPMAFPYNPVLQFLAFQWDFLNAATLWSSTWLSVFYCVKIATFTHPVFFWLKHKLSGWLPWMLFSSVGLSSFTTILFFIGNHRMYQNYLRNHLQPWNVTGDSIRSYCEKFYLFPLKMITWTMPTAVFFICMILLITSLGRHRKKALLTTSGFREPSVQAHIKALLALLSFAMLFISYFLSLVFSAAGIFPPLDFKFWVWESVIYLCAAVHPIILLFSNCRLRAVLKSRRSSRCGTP
Taste receptor type 2 member 41 (Homo sapiens), sequence (P59536 whole entry, the tested form may be a part): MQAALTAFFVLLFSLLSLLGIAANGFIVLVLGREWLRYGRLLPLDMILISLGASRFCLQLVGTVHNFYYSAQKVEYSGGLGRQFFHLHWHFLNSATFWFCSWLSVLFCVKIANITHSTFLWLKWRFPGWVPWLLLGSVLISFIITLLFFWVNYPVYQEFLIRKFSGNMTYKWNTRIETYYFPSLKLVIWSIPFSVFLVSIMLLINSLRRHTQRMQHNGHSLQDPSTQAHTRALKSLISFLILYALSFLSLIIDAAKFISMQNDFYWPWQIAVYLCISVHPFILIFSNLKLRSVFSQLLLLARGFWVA
Taste receptor type 2 member 40 (Homo sapiens), sequence (P59535 whole entry, the tested form may be a part): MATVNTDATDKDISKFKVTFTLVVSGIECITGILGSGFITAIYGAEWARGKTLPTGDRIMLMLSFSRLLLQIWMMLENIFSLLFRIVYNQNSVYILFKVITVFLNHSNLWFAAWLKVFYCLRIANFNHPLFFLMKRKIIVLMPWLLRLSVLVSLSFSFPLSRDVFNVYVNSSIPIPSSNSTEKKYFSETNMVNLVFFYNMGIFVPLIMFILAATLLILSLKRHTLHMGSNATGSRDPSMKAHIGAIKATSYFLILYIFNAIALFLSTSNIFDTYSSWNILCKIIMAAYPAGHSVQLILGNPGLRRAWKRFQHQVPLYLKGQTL

Consider `C/C1=C\C[C@H](O)/C(C)=C/[C@H]2OC(=O)[C@@H](C)C2CC1` (stereo not given in full), for which the result in test [1], in test [2], in test [3], in [4], in test [6] and in test [7] was inactive. Further, the outcome in test [5] was Active.

As for `C/C1=C\C[C@H](O)[C@@H](C)C[C@H]2OC(=O)[C@@H](C)C2CC1` (stereo not given in full), the IC50 is 22.9 µM in test [8], 44.5 µM in [9] and 51.4 µM in test [10].

The record behind these values is ChEMBL document CHEMBL4421717, “Antagonists and agonists of bitter taste receptors and uses thereof” (2012).
